Values quoted from earlier work in patent US9125929B2, “Trauma therapy” (Hibernation Therapeutics, A KF LLC, priority 2006, dated 2015).
Each block holds one compound with its values, some of them ahead of it.

Experiments:
[1] = molecular target: T1, NK(3) receptor (Homo sapiens, UniProt P29371); conditions: NK(1) over NK(3)
T1 sequence (P29371 1-465): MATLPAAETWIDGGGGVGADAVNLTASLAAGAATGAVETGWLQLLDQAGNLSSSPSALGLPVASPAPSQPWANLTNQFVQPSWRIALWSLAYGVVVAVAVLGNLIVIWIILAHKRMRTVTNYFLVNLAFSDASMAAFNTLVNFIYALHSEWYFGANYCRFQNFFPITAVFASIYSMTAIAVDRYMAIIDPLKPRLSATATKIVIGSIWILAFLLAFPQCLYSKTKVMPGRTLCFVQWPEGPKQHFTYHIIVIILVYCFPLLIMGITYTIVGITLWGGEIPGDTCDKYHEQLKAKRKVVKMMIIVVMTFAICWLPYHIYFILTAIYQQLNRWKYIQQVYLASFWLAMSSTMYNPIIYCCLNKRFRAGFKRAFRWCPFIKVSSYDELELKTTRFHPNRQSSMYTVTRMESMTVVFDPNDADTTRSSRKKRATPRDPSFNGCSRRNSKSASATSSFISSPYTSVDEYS

[2] = molecular target: human NK(1) receptor (Homo sapiens, UniProt P25103); conditions: read-out: K(i) for the human NK(1) receptor
[3] = molecular target: T2, NK(2) receptor (Homo sapiens, UniProt P21452); conditions: NK(1) over NK(2)
T2 sequence (P21452 1-398): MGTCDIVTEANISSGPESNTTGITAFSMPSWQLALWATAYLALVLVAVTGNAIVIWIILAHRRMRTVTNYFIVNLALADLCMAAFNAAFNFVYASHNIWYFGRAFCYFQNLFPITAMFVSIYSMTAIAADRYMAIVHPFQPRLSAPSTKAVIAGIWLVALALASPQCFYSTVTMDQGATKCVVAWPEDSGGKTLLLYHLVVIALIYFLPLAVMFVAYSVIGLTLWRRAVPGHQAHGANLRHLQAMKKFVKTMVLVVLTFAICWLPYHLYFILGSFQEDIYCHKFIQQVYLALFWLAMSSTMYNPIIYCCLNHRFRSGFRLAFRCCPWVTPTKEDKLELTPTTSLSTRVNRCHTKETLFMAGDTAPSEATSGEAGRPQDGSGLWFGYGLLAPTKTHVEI

[4] = orally and/or intravenous, 10, 25, 50 and 100 mg/kg body weight
[5] = 400 mg daily tablets

Chain of human NK(1) receptor (P25103 whole entry): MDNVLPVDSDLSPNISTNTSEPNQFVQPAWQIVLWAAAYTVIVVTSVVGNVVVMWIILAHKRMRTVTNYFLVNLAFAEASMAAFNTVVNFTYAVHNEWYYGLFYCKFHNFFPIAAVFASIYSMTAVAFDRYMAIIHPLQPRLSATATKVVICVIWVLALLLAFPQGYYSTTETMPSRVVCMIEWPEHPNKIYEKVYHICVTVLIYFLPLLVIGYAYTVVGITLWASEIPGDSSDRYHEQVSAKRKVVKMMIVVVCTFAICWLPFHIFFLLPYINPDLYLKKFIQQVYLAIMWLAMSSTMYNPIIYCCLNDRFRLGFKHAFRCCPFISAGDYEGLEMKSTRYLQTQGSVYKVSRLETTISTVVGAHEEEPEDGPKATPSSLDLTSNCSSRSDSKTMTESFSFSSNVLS

- selectivity toward NK(3) receptor [1]: over 200 fold
- Ki [2]: 0.45 nM
- selectivity toward NK(2) receptor [3]: over 200 fold
Compound: Cc1cccc(C)c1NC(=O)C[C@H]1CCN(C(=O)c2cc(C(F)(F)F)cc(C(F)(F)F)c2)[C@@H](Cc2ccccc2)C1.O=C(O)C[C@H](O)C(=O)O (relative stereo) [R116301, (2R-trans)-4-[1-[3,5-bis(trifluoromethyl)benzoyl]-2-(phenylmethyl)-4-piperidinyl]-N-(2,6-dimethylphenyl)-1-acetamide(S)-Hydroxybutanedioate]

Compound: NC(=O)c1ncn([C@@H]2O[C@H](CO)[C@@H](O)[C@H]2O)c1N [Acadesine, 5-amino-4-imidazole carboxamide ribonucleoside]
- safety in humans [4]: safe

- plasma level [5]: about 0.4 microgram/ml
- plasma level (concentration) [5]: ~800 nM
Compound: OCCN(CCO)c1nc(N2CCCCC2)c2nc(N(CCO)CCO)nc(N3CCCCC3)c2n1 [Dipyridamole]

- half life in the blood: about 10 seconds
Compound: Nc1ncnc2c1ncn2[C@@H]1O[C@H](CO)[C@@H](O)[C@H]1O [adenosine, 6-amino-9-β-D-ribofuranosyl-9H-purine]
